For one assay, the target named is T1, hMMP 13 (Homo sapiens, UniProt P45452).
T1 construct: made in house
In words: In vitro metalloprotease inhibition, fluorogenic peptide substrate (recombinant human MMP-13, APMA activated). The class given is biochemical. As to conditions: recombinant human MMP-13, room temperature, pH 7.5, 4 μM substrate. Here is the method:
(§1) Briefly, 4-aminophenylmercuric acetate (APMA) or trypsin activated MMPs were incubated with various concentrations of the inhibitor compound at room temperature for 5 minutes (0.02% 2-mercaptoethanol added to buffer for thiol compounds with 5 minutes or overnight incubation).
(§2) More specifically, recombinant human MMP-13 and MMP-1 enzymes were prepared in laboratories of the assignee. MMP-13 was expressed in baculovirus as a proenzyme, and purified first over a heparin agarose column and then over a chelating zinc chloride column. The proenzyme was activated by APMA for use in the assay. MMP-1 expressed in transfected HT-1080 cells was provided by Dr. Howard Welgus of Washington University, St. Louis, Mo. The enzyme was also activated using APMA and was then purified over a hydroxamic acid column.
(§3) The enzyme substrate is a methoxycoumarin-containing polypeptide having the following sequence:
(§4) MCA-ProLeuGlyLeuDpaAlaArgNH^2, wherein MCA is methoxycoumarin and Dpa is 3-(2,4--dinitrophenyl)-L-2,3-diaminopropionyl alanine.
(§5) Assays were carried out at room temperature, and dimethyl sulfoxide (DMSO) at a final concentration of 1 percent was used to dissolve inhibitor compound.
(§6) The assayed inhibitor compound in DMSO/buffer solution was compared to an equal amount of DMSO/buffer with no inhibitor as control using Microfluor™ White Plates (Dynatech). The inhibitor or control solution was maintained in the plate for 10 minutes and the substrate was added to provide a final concentration of 4 μM.
(§7) Inhibition was measured as a reduction in fluorescent intensity as a function of inhibitor concentration, using a Perkin Elmer L550 plate reader. The IC50 values were calculated from those values.

The target in another assay is T2, hMMP 1 (Homo sapiens, UniProt P03956).
T2 construct: host or cells: transfected HT-1080 cells
T2 sequence (P03956 100-469): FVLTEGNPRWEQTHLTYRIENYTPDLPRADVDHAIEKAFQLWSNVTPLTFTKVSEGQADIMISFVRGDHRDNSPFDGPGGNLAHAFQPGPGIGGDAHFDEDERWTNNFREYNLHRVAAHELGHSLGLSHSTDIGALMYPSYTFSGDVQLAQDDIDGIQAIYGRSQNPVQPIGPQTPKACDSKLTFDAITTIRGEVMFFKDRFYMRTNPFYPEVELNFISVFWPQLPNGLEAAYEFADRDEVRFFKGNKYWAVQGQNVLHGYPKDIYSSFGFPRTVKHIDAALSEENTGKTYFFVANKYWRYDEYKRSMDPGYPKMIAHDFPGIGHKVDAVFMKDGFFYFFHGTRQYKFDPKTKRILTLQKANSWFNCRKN
Put plainly: In vitro metalloprotease inhibition, fluorogenic peptide substrate (recombinant human MMP-1, APMA activated). The class given is biochemical. As to conditions: human MMP-1, room temperature, pH 7.5, 4 μM substrate. Here is the method: as §1, §2, §3, §4, §5, §6, §7

For orientation: IC50 means the midpoint of a concentration-inhibition curve.

With `COc1ccc(S(=O)(=O)CC(C)S)cc1` (racemic) [Example 1, (R,S)1-[(4-methoxyphenyl)-sulfonyl]propane-2-thiol], the IC50 on hMMP 13 amounted to 400 nM; on hMMP 1, 4000 nM. Take `COc1ccc(S(=O)(=O)CCC(C)S)cc1` (racemic) [Example 2, (R,S)-4-[(4-methoxyphenyl)-sulfonyl]butane-2-thiol]: the figures for the IC50 at hMMP 13 and at hMMP 1 were 33 nM and 8000 nM, respectively. `COC(=O)C(S)CCS(=O)(=O)c1ccc(OC)cc1` (racemic) [Example 10, (R,S)-Methyl-4-[(4-methoxyphenyl)sulfonyl]-2-mercaptobutanoate]: the 50% inhibitory concentration (IC50) on hMMP 13 worked out at 15 nM; on hMMP 1 it was 4000 nM. Consider `COc1ccc(S(=O)(=O)CC(CS)NC(=O)CNC(=O)OCc2ccccc2)cc1` (racemic) [Example 33, 2-R,S-(N-carbobenzyloxy-glycyl)amino-3-(4-methoxybenzenesulfonyl)propanethiol], for which the IC50 was determined as 42 nM at hMMP 13 and 900 nM at hMMP 1.

Regarding `COc1ccc(S(=O)(=O)[C@@H]2CCC[C@@H](S)C2)cc1` (relative stereo) [Example 7, (R,S)trans-3-[(4-methoxyphenyl)sulfonyl]cyclohexanethiol], on hMMP 1, the IC50 is 1000 nM.

Regarding `O=S(=O)(c1ccc(Sc2ccccc2)cc1)[C@@H]1CCC[C@@H](S)C1` (relative stereo) [Example 38, (R,S)trans-3-[(phenylthio)phenylsulfonyl]cyclohexanethiol], on hMMP 1, the IC50 was above 10000 nM. Regarding `COc1ccc(S(=O)(=O)C[C@@H](C)CS)cc1` [Example 3, 3-[(4-methoxyphenyl)sulfonyl]-2(S)-methylpropanethiol], the IC50 on hMMP 1 was above 10000 nM. As to `O=S(=O)(CCCS)c1ccc(OCCCc2ccccc2)cc1` [Example 4, 3-[(4-{3-phenylpropyloxy)phenyl}sulfonyl]-propanethiol], the IC50 was 1000 nM at hMMP 13 and above 10000 nM at hMMP 1. As to `CC(C)(C)OC(=O)COc1ccc(S(=O)(=O)CCCS)cc1` [Example 5], the 50% inhibitory concentration (IC50) at hMMP 13 was 400 nM; on hMMP 1, above 10000 nM.

As for `O=C(O)COc1ccc(S(=O)(=O)CCCS)cc1` [Example 6], the IC50 at hMMP 13 and on hMMP 1 was above 10000 nM throughout. On to `CCCC[C@]1(S(=O)(=O)c2ccc(OC)cc2)CCC[C@@H](S)C1` [Example 8, (R,S)3-butyl-3-[(4-methoxyphenyl)sulfonyl]cyclohexanethiol], for which the IC50 is 1300 nM at hMMP 13 and above 10000 nM at hMMP 1. Consider `COc1ccc(S(=O)(=O)C2CCC(S)C2)cc1` (centres unmarked) [Example 9], for which, on hMMP 13, the IC50 amounted to 500 nM. For the molecule `COc1ccc(CS(=O)(=O)CCCS)cc1` [Example 11, (R,S)-3-[(4-methoxybenzyl)-sulfonyl]propane thiol], the IC50 on hMMP 13 and at hMMP 1 was above 10000 nM throughout. For the molecule `COc1ccc(S(=O)(=O)CCCS)cc1` [Example 13, 3-[(4-methoxyphenyl)sulfonyl]propane-1-thiol], the IC50 stood at 70 nM at hMMP 13 and 8000 nM on hMMP 1.

Consider `COc1ccc(S(=O)(=O)C[C@H](C)CS)cc1` [Example 14, 3-[(4-methoxyphenyl)sulfonyl]-2R-methylpropane-1-thiol], for which the figures for the IC50 at hMMP 13 and at hMMP 1 were 190 nM and 6500 nM, respectively. Turning to `COc1ccc(S(=O)(=O)CC(C)(C)CS)cc1` [Example 15, 3-[(4-methoxyphenyl)sulfonyl]-2,2-dimethylpropane-1-thiol], the IC50 on hMMP 13 is 700 nM.

Turning to `CCC(CCS)S(=O)(=O)c1ccc(OC)cc1` (centres unmarked) [Example 16, 3-[(4-methoxyphenyl)sulfonyl]-pentane-1-thiol], the IC50 at hMMP 13 came to 4 nM; on hMMP 1, 600 nM.

Regarding `CCCCCCCCCC(CCS)S(=O)(=O)c1ccc(OC)cc1` (centres unmarked) [Example 17, 3-[(4-methoxyphenyl)sulfonyl]-dodecane-1-thiol], the IC50 on hMMP 13 was 210 nM; at hMMP 1, above 10000 nM.

`COc1ccc(S(=O)(=O)C(CCS)Cc2ccccc2)cc1` (centres unmarked) [Example 18, 3-[(4-methoxyphenyl)sulfonyl]-4-phenylbutane-1-thiol]: at hMMP 1, the IC50 was determined as 60 nM.
